Data from PMC3132048, “Treatment of experimental adjuvant arthritis with a novel folate receptor-targeted folic acid-aminopterin conjugate” (Arthritis Research & Therapy, 2011).

Experiments:
rat TG-macs = assay: Viability of thioglycollate-elicited peritoneal macrophages; assay type: cell-based; settings: 72-hour incubation; no effect at concentrations as high as stated
Procedure: Female Lewis rats (175 to 200 g) were purchased from Harlan Sprague Dawley (Indianapolis, IN, USA) and were allowed to acclimate for 1 week. To obtain peritoneal macrophages, rats were dosed intraperitoneally with an aged thioglycollate (TG) medium (20 ml/kg) and euthanized 3 days later. The peritoneal cavity of the animals was lavaged with 60 ml ice-cold phosphate-buffered saline to collect peritoneal exudate. The TG-elicited macrophages in the peritoneal fluids were obtained after a red cell lysing step and a 2-hour adherence in folate-free RPMI 1640 medium (Mediatech, Manassas, VA, USA) containing 1% heat-activated fetal calf serum and antibiotics. The purity of the resulting macrophage population (herein referred to as rat TG-macs) was determined to be ~90% pure based on CD11b/c expression (data not shown). […] Unless otherwise specified, all cells were maintained in the folate-free RPMI 1640 medium containing 10% heat-activated fetal calf serum and antibiotics (FFRPMI) under a 5% CO2 atmosphere.
Unlike RAW264.7 cells, rat TG-macs display little proliferative activity ex vivo and therefore were used in our studies to represent inflammatory macrophages in a low proliferative state. […] LPS (5 μg/ml) and IFNγ (100 ng/ml) were then added to the treated cells 24 hours prior to the end of incubation to stimulate the release of cytokines/chemokines, which were then detected with a rat cytokine antibody array.

[1] = system: cytokine/chemokine release by rat TG-macs; assay: Rat cytokine array analysis after LPS/IFNγ co-stimulation; assay type: cell-based; settings: 100 nM, 2-hour pulse, 70-hour chase, LPS 5 μg/ml plus IFNγ 100 ng/ml last 24 hours
Procedure: This analysis was performed on rat TG-macs to compare EC0746 against AMT and MTX for their abilities to inhibit cytokine production after LPS/IFNγ co-stimulation. Using our standard condition of 2-hour pulse plus a 70-hour chase period, rat TG-macs (harvested the day before) were given vehicle (media only), EC0746 (100 nM), EC0746 (100 nM) plus 100-fold molar excess of FA (10 μM), or FA alone (10 μM). For unconjugated base drugs, 100 nM AMT and MTX were present continuously for the entire 72-hour incubation period. Twenty-four hours prior to the end of incubation, LPS (5 μg/ml) and IFNγ (100 ng/ml) were added to the cells to stimulate cytokine production. The presence of cytokines/chemokines in the culture media was detected using a rat cytokine antibody array kit (R&D Systems) capable of detecting 29 analytes in duplicate spots. The total pixel intensity for each spot in the array was quantitated using the NIH ImageJ software, subtracted from the background, and averaged for each analyte.

[2] = biological target: T1, FRα (FRα-expressing KB cells) (Homo sapiens, UniProt P15328); assay: Relative affinity assay: displacement of [3H]FA from KB cells; assay type: binding; settings: 37°C, competitor of [3H]FA, inverse molar ratio to displace 50%
T1 construct: both KB cells and CHO-FRβ cells were used as the sources of FR; endogenous in cells; host or cells: KB cells
Procedure: The relative affinities of EC0746, AMT, and MTX were determined according to a previously established method except that both KB cells and CHO-FRβ cells were used as the sources of FR [33]. KB cells are a human cancer cell line known for elevated expression of FRα. CHO-FRβ cells were obtained from Manohar Ratnam, Department of Biochemistry and Cancer Biology, The University of Toledo (Toledo, OH, USA). This cell line was originally generated by stable integration and amplification of a human FRβ cDNA expression construct in CHO-K1 cells.

RAW264.7 cells = assay type: cell-based, murine
Procedure: RAW264.7 cells in 96-well plates (3.5 × 10^4 cells/well) were treated with 10-fold serial dilutions of EC0746 (≤1 μM) in FFRPMI medium without and with 100-fold molar excess of FA. After a 2-hour exposure, the drug-containing media were replaced and the cells were allowed to incubate further for 70 hours (referred in the text as a 70-hour chase). In comparison, the cells were also treated continuously with AMT for 72 hours. Four hours prior to the end of incubation, LPS was added to the treated cells at a final concentration of 100 ng/ml. Then 100 μl culture supernatants were collected for TNFα analysis by ELISA. The cell viability was assessed by adding XTT to the remaining media for an additional 4 hours following the manufacturer's instructions. To evaluation of a cytostatic effect, RAW264.7 cells seeded at 1 × 10^6 cells/well in six-well plates were subjected to 2-hour exposure and a 70-hour chase with 0, 0.1, 10, and 1000 nM EC0746 without and with excess FA. At the end of the incubation (no LPS added), the surviving cells (that is, still viable cells) were recovered and redistributed in equal numbers in fresh medium for an additional 72 hours. The cell proliferation was again assessed by the XTT assay. All results were expressed as the percentage absorbance (minus background) relative to the untreated control cells.

T1 sequence (P15328 25-257): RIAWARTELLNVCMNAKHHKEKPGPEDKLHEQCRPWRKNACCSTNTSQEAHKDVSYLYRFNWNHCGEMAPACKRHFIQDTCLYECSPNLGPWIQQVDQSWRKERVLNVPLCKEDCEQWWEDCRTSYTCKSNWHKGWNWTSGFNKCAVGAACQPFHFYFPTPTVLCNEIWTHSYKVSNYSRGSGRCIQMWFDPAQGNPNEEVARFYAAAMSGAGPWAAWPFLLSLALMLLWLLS

Nc1nc(N)c2nc(CNc3ccc(C(=O)N[C@@H](CCC(=O)NNC(=O)OCCSSC[C@H](NC(=O)[C@H](CCC(=O)NC[C@H](O)[C@@H](O)[C@H](O)[C@H](O)CO)NC(=O)[C@H](CCC(=O)O)NC(=O)[C@H](CCC(=O)NC[C@H](O)[C@@H](O)[C@H](O)[C@H](O)CO)NC(=O)[C@H](CCC(=O)O)NC(=O)[C@H](CCC(=O)NC[C@H](O)[C@@H](O)[C@H](O)[C@H](O)CO)NC(=O)CC[C@H](NC(=O)c4ccc(NCc5cnc6nc(N)[nH]c(=O)c6n5)cc4)C(=O)O)C(=O)O)C(=O)O)cc3)cnc2n1 [EC0746]
Concentration affecting TG-macs viability (rat TG-macs): > 10 µM | Number of released cytokines/chemokines (of ~19) showing FR-specific inhibition [1]: 11 | Relative affinity value (FA = 1) [2]: 0.50 | IC50 (RAW264.7 cells; 2-hour pulse, 70-hour chase, read-out: Relative 50% inhibitory concentration, inhibition of cell proliferation (XTT)): ~300 pM | Antiproliferative effect competitive in presence of excess FA (RAW264.7 cells; 100-fold molar excess FA): 100% | Proliferation of surviving cells redispersed into fresh medium (RAW264.7 cells; additional 72-hour incubation after 2-hour pulse plus 70-hour chase): could no longer divide | Maximum growth inhibition (RAW264.7 cells; concentrations ≥1 nM, 2-hour pulse, 70-hour chase): ~ 50%
